Here are results for 16 compounds from patent US7875653B2, “Emulsion comprising 1,2-alkanediols and polar oil components” (Beiersdorf AG, priority 2005, dated 2011).

One data set is described as follows: Polarity: interfacial tension towards water. The data set is classed as physicochemical. Particulars: moderately polar lipids, between about 20 and about 30 mN/m. An excerpt: Oils and fats differ from one another in their polarity, which is difficult to define. It has already been proposed to adopt the interfacial tension towards water as a measure of the polarity index of an oil or of an oil phase. The lower the interfacial tension between this oil phase and water, the greater the polarity of the oil phase in question. According to the present invention, the interfacial tension is regarded as one possible measure of the polarity of a given oil component.
The interfacial tension is the force which acts on an imaginary line one meter in length at the interface between two phases. The physical unit for this interfacial tension is conventionally calculated from the force/length relationship and is usually expressed in mN/m (millinewtons divided by meters). It has a positive sign if it tends to reduce the interface. In the converse case, it has a negative sign. For the purposes of the present invention, lipids are regarded as polar if their interfacial tension towards water is less than about 20 mN/m, and as nonpolar if their interfacial tension towards water is more than about 30 mN/m. Lipids with an interfacial tension towards water between about 20 and about 30 mN/m are generally referred to as moderately polar.
For the compound `CCCCC(CC)C(=O)OCCC(C)CC(C)(C)C` (stereo not shown) [Dermol 98, 2-Ethylhexanoic acid 3,5,5 trimethyl ester], the “Polarity (interfacial tension towards water)” value (shortened to “Polarity”) is listed as 26.2 mN/m.
Turning to `CCCCCCCCCC(=O)OCCCC(C)C` [Dermol IHD, Isohexyl decanoate], the “Polarity” value amounted to 29.7 mN/m.
Same read-out and setting: to `CCCCCCCCCCCCCC(=O)OCC(CCCCCCCC)CCCCCCCCCC` (stereo not shown) [M.O.D., Octyldodecyl myristate] belongs 22.1 mN/m.
Same read-out and setting: as for “Isotridecyl 3,5,5 trimethyl hexanona-noate [Dermol 139]”, the figure is 24.5 mN/m; as for `CCCCCCCC(=O)OCC(COC(=O)CCCCCCC)OC(=O)CCCCCCC` [Trivent OCG, Tricaprylin], 20.2 mN/m; as for `CCCCCCC(CCCC)C(=O)O` (stereo not shown) [Isocarb 12, Butyl octanoic acid], 22.1 mN/m.
The same measure, in the same setting: as for `CCCCCCCC(=O)OCCCCCCCC(C)C` [Dermol 108, Isodecyl octanoate], the figure is 29.6 mN/m; as for `CC(C)CCCCCCCOC(=O)CC(C)CC(C)(C)C` (stereo not shown) [Dermol 109, Isodecyl 3,5,5-trimethyl hexanoate], 29.1 mN/m; as for `CC(C)CCCCCCCOC(=O)C(C)(C)C` [DUB VCI 10, Isodecyl neopentanoate], 29.9 mN/m.
On to `CCCCCCCCCCC(CO)CCCCCCCC` (stereo not shown) [Eutanol G, Octyldodecanol], for which the “Polarity” value is 24.8 mN/m.
`CCCCCCCCCCCCCCCCCC(=O)OC(C)C` [Isopropyl stearate]: the “Polarity” value was 21.9 mN/m.
For the compound `CCCCCCOCCCCCC` [Dihexyl ether], the “Polarity” value came to 29.2 mN/m.

The same data set, now with this note: polar lipids, less than about 20 mN/m.
Take `CCCCOC(=O)CCCCC(=O)OCCCC` [Cetiol B, Dibutyl adipate]: the “Polarity” value was 14.3 mN/m.
As to Triisostearin [Prisorine 2041 GTIS], the “Polarity” value came to 2.4 mN/m.
On the same count and under the same terms, to PEG 2 Diethylene hexanoate [Dermol 488] belongs 10.1 mN/m; to `CCCCCCCCCCCCCCCCCCOC(=O)CCCCCC` [Tegosoft SH, Stearyl heptanoate], 17.8 mN/m.
